Our source for the IC50 and melting point values is US20110257171A1, “NOVEL IMIDAZO[1,2-A]PYRIDINE DERIVATIVES, METHOD FOR THE PREPARATION THEREOF, USE THEREOF AS MEDICAMENTS, PHARMACEUTICAL COMPOSITIONS AND NOVEL USE IN PARTICULAR AS MET INHIBITORS” (SANOFI-AVENTIS, priority 2008, published 2011).

Broadly, the pIC50 is −log10 of the IC50, conventionally taken in molar units. For orientation: melting point means the temperature, or range, at which the solid turns liquid.

Series [1] concerns the target T1, MET (Homo sapiens, UniProt P08581). The series is described as follows: Test B: inhibition of the autophosphorylation of MET, ELISA technique (pppY1230, 1234, 1235) in MKN45 cells. It counts as cell-based. Details: endogenous in cells; host or cells: MKN45 cells. To be noted: 1 h treatment, phosphoMET ELISA. On the procedure:
B) Test B: Inhibition of the Autophosphorylation of Met; ELISA Technique (pppY1230, 1234, 1235) a) Cell lysates: MKN45 cells are seeded into 96-well plates (cell coat BD polylysine) at 20 000 cells/well in 200 μl of RPMI medium+10% FCS+1% L-glutamine. They are left to adhere for 24 hours in an incubator.
The cells are treated the day after seeding with the products at 6 concentrations, in duplicate, for 1 h. At least 3 control wells are treated with the same final amount of DMSO.
Product dilution: Stock at 10 mM in pure DMSO—range from 10 mM to 30 μM with an increment of 3 in pure DMSO—intermediate dilutions to 1/50 in culture medium and then removal of 10 μl added directly to the cells (200 μl): final range of 10 000 to 30 nM.
At the end of the incubation, the supernatant is carefully removed and rinsing is performed with 200 μl of PBS. Next, 100 μl of lysis buffer are placed directly in the wells on ice and incubated at 4° C. for 30 minutes. Lysis buffer: 10 mM Tris HCl, pH 7.4, 100 mM NaCl, 1 mM EDTA, 1 mM EGTA, 1% Triton X-100, 10% glycerol, 0.1% SDS, 0.5% deoxycholate, 20 mM NaF, 2 mM Na3VO4, 1 mM PMSF and cocktail of antiproteases.
The 100 μl of lysates are transferred into a V-bottomed polypropylene plate and the ELISA is performed immediately, or the plate is frozen at −80° C.
70 μl of kit dilution buffer+30 μL of cell lysate, or 30 μl of lysis buffer for the blanks, are added to each well of the kit plate. Incubation is carried out for 2 h with gentle agitation at ambient temperature.
The wells are rinsed 4 times with 400 μl of kit washing buffer. Incubation is carried out with 100 μl of anti-phospho MET antibody for 1 hour at ambient temperature.
The wells are rinsed 4 times with 400 μl of kit washing buffer. Incubation is carried out with 100 μl of anti-rabbit HRP antibody for 30 minutes at ambient temperature (except for the wells of chromogen alone).
The wells are rinsed 4 times with 400 μl of kit washing buffer. 100 μL of chromogen are introduced and incubation is carried out for 30 minutes in the dark at ambient temperature.
The reaction is stopped with 100 μl of stop solution. The plate is read without delay at […], 0.1 second on a Wallac Victor plate reader.
Target sequence in this assay (P08581 25-1390): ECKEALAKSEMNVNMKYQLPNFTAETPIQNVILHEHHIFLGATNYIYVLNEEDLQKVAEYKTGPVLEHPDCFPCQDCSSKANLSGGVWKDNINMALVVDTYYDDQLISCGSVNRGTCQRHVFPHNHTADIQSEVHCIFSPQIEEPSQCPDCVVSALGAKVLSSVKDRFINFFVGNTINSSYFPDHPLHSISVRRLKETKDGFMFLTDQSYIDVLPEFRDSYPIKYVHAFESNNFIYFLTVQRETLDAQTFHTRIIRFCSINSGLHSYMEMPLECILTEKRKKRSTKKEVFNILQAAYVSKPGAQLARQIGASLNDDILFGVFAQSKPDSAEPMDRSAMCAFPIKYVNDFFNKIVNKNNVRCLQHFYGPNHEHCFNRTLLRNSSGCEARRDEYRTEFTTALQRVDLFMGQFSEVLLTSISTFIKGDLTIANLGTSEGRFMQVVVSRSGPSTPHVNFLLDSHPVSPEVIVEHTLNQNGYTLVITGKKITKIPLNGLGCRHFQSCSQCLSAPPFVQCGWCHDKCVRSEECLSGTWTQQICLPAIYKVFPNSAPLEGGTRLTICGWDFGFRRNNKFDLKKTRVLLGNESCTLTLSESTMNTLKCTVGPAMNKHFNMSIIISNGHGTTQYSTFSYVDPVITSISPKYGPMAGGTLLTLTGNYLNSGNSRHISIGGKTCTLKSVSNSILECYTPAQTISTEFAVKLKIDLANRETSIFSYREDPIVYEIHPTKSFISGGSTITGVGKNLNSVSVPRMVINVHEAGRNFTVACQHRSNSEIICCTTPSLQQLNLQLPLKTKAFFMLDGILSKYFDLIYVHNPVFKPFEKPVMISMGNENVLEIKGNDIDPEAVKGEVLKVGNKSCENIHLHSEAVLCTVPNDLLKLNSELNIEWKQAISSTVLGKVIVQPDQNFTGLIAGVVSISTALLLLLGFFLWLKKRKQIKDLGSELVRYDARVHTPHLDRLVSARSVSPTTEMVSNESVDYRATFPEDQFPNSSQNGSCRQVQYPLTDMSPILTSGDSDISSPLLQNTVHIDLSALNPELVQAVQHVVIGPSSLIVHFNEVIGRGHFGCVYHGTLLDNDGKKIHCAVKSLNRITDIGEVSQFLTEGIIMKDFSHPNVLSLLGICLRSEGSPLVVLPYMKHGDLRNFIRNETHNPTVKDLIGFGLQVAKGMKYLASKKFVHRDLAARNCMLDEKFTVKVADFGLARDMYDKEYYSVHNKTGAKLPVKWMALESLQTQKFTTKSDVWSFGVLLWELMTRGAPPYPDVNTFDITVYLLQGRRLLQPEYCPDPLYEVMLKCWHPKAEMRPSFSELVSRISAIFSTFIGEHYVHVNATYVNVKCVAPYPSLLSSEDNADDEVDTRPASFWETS
On the technique in general: An ELISA detects its analyte on a solid surface through an enzyme-linked reagent.

Series [2] addresses T1, MET. The series is described as follows: Test A: HTRF MET assay in 96-well format. In kind it is biochemical. Also on record: The His-Tev-MET (956-1390) recombinant DNA in pFastBac (Invitrogen) is transfected into insect cells; His (N, cleaved yes); Tev cleavage site (N); made in house; host or cells: SF21 insect cells (baculovirus, pFastBac). To be noted: MET 5 nM, 10 μM ATP. The protocol: The His-Tev-MET (956-1390) recombinant DNA in pFastBac (Invitrogen) is transfected into insect cells and, after several viral amplification steps, the final baculovirus stock is tested for the expression of the protein of interest.
After infection for 72 h at 27° C. with the recombinant virus, SF21 cell cultures are harvested by centrifugation and the cell pellets are stored at −80° C.
The cell pellets are resuspended in the lysis buffer (buffer A [50 mM HEPES, pH 7.5, 250 mM NaCl, 10% glycerol, 1 mM TECP]; +cocktail of protease inhibitors, Roche Diagnostics, without EDTA, ref 1873580), stirred at 4° C. until the mixture is homogeneous, and then lysed mechanically using a “Dounce” type apparatus.
After centrifugation, the lysis supernatant is incubated for 2 h at 4° C. with nickel chelate resin (His-Trap 6 Fast Flow™, GE HealthCare). After washing with 20 volumes of buffer A, the suspension is packed into a column, and the proteins are eluted with a gradient of buffer B (buffer A+290 mM imidazole).
The fractions containing the protein of interest, for the purpose of electrophoretic analysis (SDS PAGE), are combined, concentrated by ultrafiltration (10 kDa cut-off) and injected onto an exclusion chromatography column (Superdex® 200, GE HealthCare) equilibrated in buffer A.
After enzymatic cleavage of the histidine tag, the protein is reinjected onto a new IMAC nickel chelate chromatography column (His-Trap 6 Fast Flow™ GE HealthCare) equilibrated in buffer A. The fractions eluted with a gradient of buffer B and containing the protein of interest after electrophoresis (SDS PAGE) are finally combined and stored at −80° C.
For the production of autophosphorylated protein, the previous fractions are incubated for 1 h at ambient temperature after the addition of 2 mM ATP, 2 mM MgCl2 and 4 mM Na3VO4. After the reaction has been stopped with 5 mM of EDTA, the reaction mixture is injected onto a HiPrep desalifying column (GE HealthCare) pre-equilibrated in buffer A+4 mM Na3VO4, and the fractions containing the protein of interest (SDS PAGE analysis) are combined and stored at −80° C. The degree of phosphorylation is verified by mass spectrometry (LC-MS) and by peptide mapping.
MET at a final concentration of 5 nM is incubated in a final volume of 50 μl of enzymatic reaction in the presence of the test molecule (for a final concentration range of from 0.17 nM to 10 μM, 3% DMSO final concentration) in 10 mM MOPS buffer, pH 7.4, 1 mM DTT, 0.01% Tween 20. The reaction is initiated with the substrate solution to obtain final concentrations of 1 μg/ml poly-(GAT), 10 μM ATP and 5 mM MgCl2. After incubation for 10 min at ambient temperature, the reaction is stopped with a 30 μl mix so as to obtain a final solution of 50 mM Hepes, pH 7.5, 500 mM potassium fluoride, 0.1% BSA and 133 mM EDTA in the presence of 80 ng of streptavidin 61 SAXLB Cis-Bio Int. and 18 ng of anti-phosphotyrosine Mab PT66-Europium Cryptate per well. After incubation for 2 hours at ambient temperature, the reading is taken at 2 wavelengths, 620 nm and 665 nm, on a reader for the TRACE/HTRF technique, and the % inhibition is calculated from the 665/620 ratios.
Target sequence in this assay (P08581 956-1390): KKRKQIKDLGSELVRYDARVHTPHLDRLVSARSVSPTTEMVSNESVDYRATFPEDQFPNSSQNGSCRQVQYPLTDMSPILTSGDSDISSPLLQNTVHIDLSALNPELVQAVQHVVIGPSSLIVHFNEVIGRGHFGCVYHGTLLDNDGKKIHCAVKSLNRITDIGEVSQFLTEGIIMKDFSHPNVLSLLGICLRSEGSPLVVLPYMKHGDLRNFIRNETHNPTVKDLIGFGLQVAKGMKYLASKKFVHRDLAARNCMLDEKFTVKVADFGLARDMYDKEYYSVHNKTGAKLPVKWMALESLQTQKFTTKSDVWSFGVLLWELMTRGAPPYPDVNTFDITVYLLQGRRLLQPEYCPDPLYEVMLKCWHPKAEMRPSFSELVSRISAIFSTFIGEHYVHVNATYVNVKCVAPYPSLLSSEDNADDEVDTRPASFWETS

For series [3], the system named is HCT116 cells and MKN45 cells. The series can be described thus: Test C: measurement of cell proliferation by 14C-thymidine pulse. In kind it is cell-based. To be noted: 14C-thymidine incorporation, 96 h of treatment; cell line not given. The protocol:
The cells are seeded into Cytostar 96-well plates in 180 μl for 4 hours at 37° C. and 5% CO2: HCT116 cells in a proportion of 2500 cells per well in DMEM medium+10% foetal calf serum+1% L-glutamine, and MKN45 cells in a proportion of 7500 cells per well in RPMI medium+10% foetal calf serum+1% L-glutamine. After these 4 hours of incubation, the products are added in 10 μl as a […] concentrated solution according to the dilution method mentioned for the ELISA. The products are tested at 10 concentrations in duplicate from 10 000 nM to 0.3 nM with an increment of 3.
After treatment for 72 h, 10 μl of ^14C-thymidine at 10 μCi/ml are added so as to obtain 0.1 μCi per well. The ^14C-thymidine incorporation is measured on a Micro-Beta machine (Perkin-Elmer) after 24 hours of pulse and 96 h of treatment.
All the steps of the assay are automated on BIOMEK 2000 or TECAN stations.
Background: Dividing cells build labelled thymidine or BrdU into new DNA.

pIC50: −log10 of the molar value.

In turn, `CC(C)(C)OC(=O)N1CCC(n2cc(-c3ccc4ncc(Sc5ccc6nc(NC(=O)C7CC7)sc6c5)n4c3)cn2)CC1` [Example 11, tert-butyl 4-{4-[3-({2-[(cyclopropylcarbonyl)amino]-1,3-benzothiazol-6-yl}sulphanyl)imidazo[1,2-a]pyridin-6-yl]-1H-pyrazol-1-yl}piperidine-1-carboxylate] gave a melting point of 247 °C. The pIC50 in series [1] is greater than 7.00. Further, the negative logarithm of the IC50 (pIC50) in series [2] was greater than 7.00. The same compound showed a pIC50 in series [3] greater than 6.00.
